The source made the active and inactive calls. The calls are words filed in the database; no cut-off is given here.

This is an account of results in ChEMBL document CHEMBL6103578, “Design and synthesis three novel series of derivatives using natural acetylcholinesterase inhibitor-RLMS as template and in vitro, in vivo and in silico activities verification” (Eur J Med Chem, 2025).

Data set [1] has as its target T1, Acetylcholinesterase (Homo sapiens, UniProt P22303). In words: Binding affinity to AChE (unknown origin) assessed as dissociation constant by MST assay.
Data set [2] concerns SH-SY5Y. Put plainly: Neuroprotective effect against H2O2-induced cell injury in human SH-SY5Y cells assessed as cell survival at 25 uM preincubated for 1 hr followed by H2O2 addition measured after 2 hrs by MTT assay (reference value: 57.76 %). It counts as functional. The conditions noted are these: time 3 hrs, read-out: Activity. In general terms: Tetrazolium dyes change colour on reduction, which living cells bring about.

The target of data set [3] is T1, Acetylcholinesterase. Put plainly: Mixed competitive inhibition of AChE (unknown origin) at 2 to 8 uM by DTNB assay. The settings on record: dose 2-8 µM.
A short description of data set [4]: Toxicity in zebrafish assessed as change in heart rate at 1 to 100 uM measured 96 hrs post-fertilization. More on the design: species or system Danio rerio. The settings on record: in vivo, dose 1-100 µM.
For data set [5], the species on record is Danio rerio. In words: Anti-alzheimer activity in AlCl3-treated zebrafish assessed as increase in movement speed at 25 to 75 uM treated for 72 hrs with medium replacement containing compound daily by light/dark cycle behavioral test. It counts as functional, organism-based. The conditions noted are these: dose 25-75 µM.
The species named for data set [6] is Danio rerio. Put plainly: Anti-alzheimer activity in AlCl3-treated zebrafish assessed as inhibition of apoptosis in brain treated for 72 hrs with medium replacement containing compound daily by AO staining based analysis. Type of data set: functional, organism-based. The settings on record: dose 25-75 µM.
Data set [7] can be described thus: Toxicity in zebrafish assessed as deformaties in animal at 100 uM measured 96 hrs post-fertilization. The conditions noted are these: in vivo. More on the design: species or system Danio rerio.
Data set [8] deals with SH-SY5Y. In words: Neuroprotective effect against H2O2-induced cell injury in human SH-SY5Y cells assessed as cell survival at 25 to 100 uM preincubated for 1 hr followed by H2O2 addition measured after 2 hrs by MTT assay (reference value: 57.76 %). The settings on record: dose 25-100 µM, time 3 hrs. It counts as functional.
For data set [9], the target named is T1, Acetylcholinesterase. Put plainly: Inhibition of AChE (unknown origin) using ATCI as substrate preincubated for 20 mins followed by substrate addition measured after 30 mins by DTNB assay.
Data set [10] is described as follows: Toxicity in zebrafish assessed as malformation in animal at 100 uM measured 96 hrs post-fertilization. The conditions noted are these: in vivo. Also on record: species or system Danio rerio.
Data set [11] in a line: Toxicity in zebrafish assessed as decrease in survival rate at 100 uM measured 96 hrs post-fertilization. More on the design: species or system Danio rerio. The settings on record: in vivo.
Data set [12] is filed under the species Danio rerio. Put plainly: Anti-alzheimer activity in AlCl3-treated zebrafish assessed as increase in movement distance at 25 to 75 uM treated for 72 hrs with medium replacement containing compound daily by light/dark cycle behavioral test. The settings on record: dose 25-75 µM. Type of data set: functional, organism-based.
The target of data set [13] is T1, Acetylcholinesterase. Put plainly: Mixed competitive inhibition of AChE (unknown origin) at 2.5 to 15 uM by DTNB assay. The conditions noted are these: dose 2.5-15 µM.

T1 sequence (P22303 whole entry): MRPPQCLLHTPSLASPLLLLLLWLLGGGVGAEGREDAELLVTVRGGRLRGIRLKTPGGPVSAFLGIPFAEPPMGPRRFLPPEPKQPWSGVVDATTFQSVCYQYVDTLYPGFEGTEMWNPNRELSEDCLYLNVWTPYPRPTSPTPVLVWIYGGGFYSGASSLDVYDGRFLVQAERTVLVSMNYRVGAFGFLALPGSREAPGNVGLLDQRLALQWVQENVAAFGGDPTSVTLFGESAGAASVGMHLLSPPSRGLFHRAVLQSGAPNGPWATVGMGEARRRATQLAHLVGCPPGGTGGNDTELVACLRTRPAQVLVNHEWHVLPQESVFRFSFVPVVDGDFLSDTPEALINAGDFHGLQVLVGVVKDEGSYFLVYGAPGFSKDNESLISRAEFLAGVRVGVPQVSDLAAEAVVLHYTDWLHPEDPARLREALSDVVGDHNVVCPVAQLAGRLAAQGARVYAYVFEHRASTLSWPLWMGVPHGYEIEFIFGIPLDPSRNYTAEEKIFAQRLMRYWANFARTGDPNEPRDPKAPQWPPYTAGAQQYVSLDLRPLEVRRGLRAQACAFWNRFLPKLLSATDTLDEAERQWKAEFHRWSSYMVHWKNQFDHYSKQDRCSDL

Turning to `C[C@@H]1CC[C@]2(C(=O)NCc3ccccc3Cl)CC[C@]3(C)C(=CC[C@@H]4[C@@]5(C)C[C@@H](O)[C@H](O)[C@@](C)(CO)[C@@H]5CC[C@]43C)[C@@H]2[C@]1(C)O`, the Kd in [1] is 5.37 µM. Further, in data set [2], the viability at 25 µM is 80%. The inhibition result in data set [3] is “Active”. Further, the Activity entry is “Non-toxic” in [4]; “Dose-dependent-effect” in [6]; “Toxic” in data set [7]; greater than 57.76% in [8]; “Toxic” in [10]; “Toxic” in [11]. Also, the result in [5] and in data set [12] was Active. The compound further returned a half-inhibitory concentration (IC50) in [9] of 3.7 µM.

Regarding `C[C@@H]1CC[C@]2(C(=O)O)CC[C@]3(C)C(=CC[C@@H]4[C@@]5(C)C[C@@H](OC(=O)CCc6ccccc6)[C@H](OC(=O)CCc6ccccc6)[C@@](C)(CO)[C@@H]5CC[C@]43C)[C@@H]2[C@]1(C)O`, the viability at 25 µM in [2] stood at 72.5%. Besides, the inhibition entry in data set [13] is “Active”. The Activity in data set [8] was greater than 57.76%. Moreover, inhibition in data set [9] was half-maximal at 5.84 µM (IC50).

For orientation: Kd means the equilibrium constant for the complex coming apart. Usually IC50 stands for the concentration at which inhibition is half-maximal. Read a low IC50 as higher potency.
